What was measured:
OAT2 = details: in vitro; cited from earlier work
OATP1B3 = details: in vitro; cited from earlier work
[1] = human, in vivo
clinical [2] = details: human, in vivo
clinical [3] = details: human, in vivo; remark: listed apart in the source

Row | CL [1] | T1/2 [1] | clearance (clinical [2]; CL) | half-life (clinical [2]; T1/2) | Tmax (clinical [3]) | SMILES | substrate for liver OAT2 (OAT2) | substrate for liver OATP1B3 (OATP1B3)
1 | 18.1 ± 4.35(7) l/h | 60.2 ± 31.0(7) h | 272 mL/min | 45.1 ± 20 h |  | CC(=O)O[C@@]12CO[C@@H]1C[C@H](O)[C@@]1(C)C(=O)[C@H](O)C3=C(C)[C@@H](OC(=O)[C@H](O)[C@@H](NC(=O)OC(C)(C)C)c4ccccc4)C[C@@](O)([C@@H](OC(=O)c4ccccc4)[C@H]21)C3(C)C [Docetaxel] | substrate for liver OAT2 | substrates for liver OATP1B3
2 |  |  |  |  | 5 h | Cc1ccc(NC(=O)c2ccc(CN3CCN(C)CC3)cc2)cc1Nc1nccc(-c2cccnc2)n1 [Imatinib] |  | 

Reference: article PMC3111459 (Breast cancer research and treatment, 2011)
